The subject of one data set is MEF with wild-type CHOP. Nature of the data set: Proliferation / cytotoxicity (ATPLite) in MEF with wild-type CHOP. The note with it: Mus musculus; Table 5; MEF, ATPLite. The class given is cell-based, mouse. How it is done:
(§1) Several of the analogs derived from these changes were evaluated in secondary assays as they met the preliminary probe criteria for UPR-CHOP and UPR-XBP1 activity. Select compounds were assessed in a dose response manner for the ability to suppress proliferation in both the CHOP wild-type and CHOP knockout murine embryonic fibroblasts (−/− MEF KO CHOP)(Table 2).
(§2) It was determined whether ML291 and ML291 congeners would induce cell death (cytotoxicity as measured by ATPLite®, which measures production of ATP from living cells) in cells where these pathways are operant, but not activate them in the absence of the pathways.

The test system of the next data set is −/− MEF KO CHOP. The data set is described as follows: Proliferation / cytotoxicity (ATPLite) in MEF with CHOP KO. Type of data set: cell-based. The note with it: Mus musculus; Table 5; MEF, ATPLite. How it is done:
as §1, §2

Data set [1] deals with CHOP (apoptotic) and XBP1 (adaptive) arms of the UPR. The note with it: prior screen, non-selective hits; cited from earlier work.
Data set [2] relates to PERK-eIF2α-CHOP (apoptotic) arm of the Unfolded Protein Response pathway. The data set is described as follows: UPR-CHOP primary assay (CHO-CHOP luciferase reporter). The class given is cell-based. How it is done:
The purpose of this assay was to detect activators of the PERK-eIF2α-CHOP (apoptotic) arm of the Unfolded Protein Response pathway.
Cells were passaged twice a week. […] Once the cells had reached confluency, old medium was aspirated and the flasks were washed with 20 mL DPBS per T225 flask. Cells were left in DPBS for about 30 seconds. Subsequently, 6.5 mL 0.05% trypsin solution was added into the flask and the flask was rocked gently so that the solution covered the surface. The cells were allowed to detach by incubating at room temperature for about 4 minutes. The flask was washed with […] fresh growth media and the cell suspension was collected in a 50 mL sterile conical tube. The collected cells were centrifuged at 900 rpm for 5 minutes and re-suspended in 1 mL fresh growth media. An additional 19 mL of growth media was added and the tube was mixed gently. The cell suspension was filtered with a cell strainer and the cells were counted.
As above, cells were grown to confluency, washed, and detached with 5 mL trypsin solution for 4 minutes at room temperature. The flask was washed with 25 mL fresh growth media and the cell suspension was collected in a 50 mL sterile conical tube. The cells were centrifuged at 500 rpm for 10 minutes and re-suspended carefully in 1 mL fresh assay medium. An additional 19 mL of assay media was added the cells were mixed gently. The cell suspension was filtered with a cell strainer and the number of cells was counted. Cell density was adjusted to 1.0×10^5 cells/mL in medium.
On day 1, cell suspensions were prepared and 500 cells in 5 μL of assay media were plated in the wells of columns 1-48 of a 1536-well assay plate. The plates were centrifuged at 500 rpm for 1 minute and subsequently incubated at 37° C., 100% relative humidity, 5% CO2 for 16-18 hours.
[…] […] The plates were centrifuged at 1000 rpm for 1 minute and subsequently incubated at 37° C., 100% relative humidity, 5% CO2 for 6 hours.
Following the 6-hour incubation the plate was incubated for 10 minutes at room temperature and 3 μL of STEADY-GLO was added to each well. The plates were centrifuged at 2000 rpm for 2 minutes and subsequently incubated at room temperature for 10 minutes. Luminescence was measured with a luminometer.
The MLPCN library of approximately 330,000 compounds was tested in the UPR-CHOP primary screen utilizing a luciferase-based reporter expressed in a CHO cell line to identify activators of the CHOP apoptotic pathway. […]

For data set [3], the system named is IRE1/XBP1 (adaptive) UPR sub-pathway. The data set is described as follows: UPR XBP1 assay (CHO-XBP1-luciferase reporter cell line). The class given is cell-based. How it is done: A high-throughput screen of the NIH Molecular Libraries Small Molecule Repository (MLSMR) of >350,000 compounds was carried out using complementary cell-based reporter assays using stably transfected CHO-K1 cells that specifically identify activators of the PERK/eIF2α/CHOP (apoptotic), or the IRE1/XBP1 (adaptive) UPR sub-pathways.
The liquid samples were first confirmed at a single-point concentration of 10 μM in the […]. Of the liquid samples, 674 compounds were confirmed to have at least 32% activity at a 10 μM assay concentration. The confirmed compounds were further tested in dose response in the UPR-CHOP primary assay to obtain EC50 values. In addition, confirmed compounds were also dosed out in the CHO-XBP1-luciferase reporter cell line to identify compounds that were selective for the CHOP apoptotic over the adaptive XBP1 pathway.
The high throughput screening effort and subsequent validation produced two chemotypes, which were further explored by SAR analysis for potency, selectivity, the absence of reactive functionality, synthetic accessibility, physiochemical properties, and hit rate in unrelated PUBCHEM assays. SAR testing of re-constituted powders encompassed dose response testing of compounds in two assays: UPR-CHOP and UPR-XBP1 assays.

The next data set has as its system chickens. To be noted: grain from treated crops; cited from earlier work.
Setting [4] is: Table 9, average of four runs, F12 HAMs, 10% hi-FBS, read-out: EC50 UPR CHOP Assay.
[5] abbreviates: Table 9, average of four runs, F12 HAMs, 10% hi-FBS, read-out: EC50 UPR XBP1 Assay.
The mark [6] stands for this setting: Cricetulus griseus, read-out: CHOP EC50.

Where two headings read alike, the source gives them in different places.

For the molecule `CC1CCN(S(=O)(=O)c2ccc(NC(=O)c3ccc([N+](=O)[O-])o3)cc2)CC1` [Entry 12 (Table 1), N-(4-((4-methylpiperidin-1-yl)sulfonyl)phenyl)-5-nitrofuran-2-carboxamide], the IC50 in the data set with MEF with wild-type CHOP was determined as 4.57 ± 1.24 µM; in the data set on −/− MEF KO CHOP, 16.3 ± 0.99 µM.
For `CCN(CC)C(=S)SSC(=S)N(CC)CC` [disulfiram, bis(diethylthiocarbamoyl)disulfide], the “induction of the UPR arms” value in data set [1] was “potently induce both the CHOP (apoptotic) and XBP1 (adaptive) arms of the UPR”.
Take `CC1(C)CCN(S(=O)(=O)c2ccc(NC(=O)c3ccc([N+](=O)[O-])o3)cc2)CC1` [Analog 5]: the EC50 in data set [2] (setting [4]) was 0.77 µM; in data set [3] (setting [5]) it was > 80 µM.
For `O=C(Nc1ccc(S(=O)(=O)N2CCOCC2)cc1)c1ccc([N+](=O)[O-])s1` [Entry 2 (Table 3)], the “loss in CHOP potency versus 5-nitro-2-furan parent” value in data set [2] is reported as 6 fold.
Consider `O=C(Nc1ccc(S(=O)(=O)N2CCC(F)CC2)cc1)c1ccc([N+](=O)[O-])o1` [Entry 10 (Table 1), N-(4-((4-fluoropiperidin-1-yl)sulfonyl)phenyl)-5-nitrofuran-2-carboxamide], for which the IC50 in the data set on MEF with wild-type CHOP is 17.5 ± 2.69 µM; in the data set on −/− MEF KO CHOP, > 20 µM.
Consider `CC1CCN(S(=O)(=O)c2ccc(NC(=O)c3ccc([N+](=O)[O-])o3)cc2)CC1` [Analog 1], for which the EC50 in data set [2] (setting [4]) was 0.76 µM; in data set [3] (setting [5]), > 80 µM.
For `CC(C)(C)C1CCN(S(=O)(=O)c2ccc(NC(=O)c3ccc([N+](=O)[O-])o3)cc2)CC1` [Analog 4] the same measures were 0.65 µM and > 80 µM.
In the case of `O=C(Nc1ccc(S(=O)(=O)N2CCCCC2)cc1)c1ccc([N+](=O)[O-])o1` [Entry 8 (Table 1), N-(4-((piperidin-1-yl)sulfonyl)phenyl)-5-nitrofuran-2-carboxamide], the IC50 in the data set with MEF with wild-type CHOP is 7.84 ± 1.2 µM; with −/− MEF KO CHOP, > 20 µM.
For `O=C(Nc1nc2c(F)cc(F)cc2s1)c1ccccn1` [SID 104222735], the “CHOP potency / activity” value in data set [2] is “low micromolar”. Further, the EC50 in data set [3] (read-out: XBP1 EC50) lay within 70 to 80 µM.
Turning to `O=C(Nc1ccc(S(=O)(=O)N2CCC(F)CC2)cc1)c1ccc([N+](=O)[O-])o1` [Analog 3], the EC50 is 0.43 µM in data set [2] (setting [4]) and > 80 µM in data set [3] (setting [5]).
Take `CC(C)(C)C1CCN(S(=O)(=O)c2ccc(NC(=O)c3ccc([N+](=O)[O-])o3)cc2)CC1` [Entry 14 (Table 1), N-(4-((4-tert-butylpiperidin-1-yl)sulfonyl)phenyl)-5-nitrofuran-2-carboxamide]: the IC50 with MEF with wild-type CHOP is 1.36 ± 0.54 µM; in the data set with −/− MEF KO CHOP it was 2.05 ± 0.29 µM.
For `O=C(Nc1ccc(S(=O)(=O)N2CCOCC2)cc1)c1ccc([N+](=O)[O-])o1` [Entry 1 (Table 1)], in data set [2], the “CHOP potency / activity” value is listed as “low micromolar”. The “selectivity (XBP1 over CHOP)” value in data set [2] is 35 fold. Further, the EC50 in data set [2] (setting [6]) is 2.02 µM; in data set [3] (listed as SID104222717, read-out: XBP1 EC50), > 71 µM; in data set [3] (read-out: XBP1 EC50), 70 to 80 µM.
Take `CN(C)C(=S)SSC(=S)N(C)C` [NSC-1771]: the “induction of the UPR arms” value in data set [1] was “potently induce both the CHOP (apoptotic) and XBP1 (adaptive) arms of the UPR”. Besides, the “toxicity in chickens” value in the data set on chickens is reported as “cause dyschondoplasia in the offspring of chickens”.
Turning to `CC1(C)CCN(S(=O)(=O)c2ccc(NC(=O)c3ccc([N+](=O)[O-])o3)cc2)CC1` [Entry 13 (Table 1), N-(4-((4,4-dimethylpiperidin-1-yl)sulfonyl)phenyl)-5-nitrofuran-2-carboxamide], the EC50 in data set [2] (setting [6]) is 0.5 µM. Also, the “XBP1 liability” value in data set [3] is recorded as “no discernable XBP1 liability”. The IC50 with MEF with wild-type CHOP came to 3.02 ± 0.6 µM; with −/− MEF KO CHOP it was 9.17 ± 3.34 µM.

The record behind these values is patent publication US9732067B2, “Compounds and methods for activating the apoptotic arm of the unfolded protein response” (University of Kansas, priority 2012, dated 2017).
